Laboratory results published in patent US8057800B2, “Immunointeractive molecules and uses thereof” (Circassia Limited, priority 2004, dated 2011).

Legend:
[1] = system: peanut specific TCL generated using CPE; assay: CPE driven peanut specific TCL proliferation assay (3H-thymidine); assay type: cell-based, human; settings: for responders with a proliferative response to the peptide / proliferative response: CPE driven TCL; for responders with a proliferative response to the peptide: 8 responders; for proliferative response: peptide 10 μg/ml, stimulation index ≧2.5; for subjects responding to the peptide who also had a proliferative response to Ara h 2: subjects with a response to Ara h 2 (19-38) and Ara h 2 (28-47)
Experimental: FIG. 4 is a graphical representation of peanut allergic donor peanut specific TCL proliferative responses to Ara h 2 peptides, Ara h 2 and crude peanut extract. Peanut specific TCL (5×10^4 cells/ml) from individuals with peanut allergy generated using CPE were stimulated with Ara h 2 peptides at a concentration of 10 μg/ml in the presence of autologous irradiated PBMC as APC (5×10^4 cells/ml) in 3 day cultures.
(§1) Freshly harvested or frozen stored PBMC were cultured in 24-well plates (Greiner Biotechnik, Germany) at 2.5×10^6 cells per well (2 ml volume) in complete medium with antigen at an optimised concentration for 7 days at 37° C. in a 5% CO2 humidified incubator. In the case of frozen PBMC the cells were first washed once in wash medium, 1 in 10 dilution of PBMC to medium, and pelleted at 329×g for 10 minutes to remove DMSO. At day 7 cells were washed once and resuspended at 1 to 1.5×10^6/ml and added together with 1×10^6/ml washed irradiated (3000 rads; Gammacell 1000 Elite, Nordion International, Inc.) autologous PBMC (from liquid nitrogen stocks) and antigen into fresh 24-well plates. At day 2 following restimulation, 25 U/ml of recombinant human interleukin-2 (rIL-2) was added and at day 4, 1 ml of culture medium was removed and replaced with fresh medium and 25 U/ml rIL-2. For some experiments due to low cell numbers at 2 weeks, 3 week TCLs were generated by restimulation with antigen and rIL-2 as above for a further week. In all experiments T cells were rested for 6 to 7 days after the last addition of antigen and APC.
(§2) 5.0×10^4/well TCL cells were cultured in triplicate in 96-well U bottom plates (Linbro ICN Biomedicals, USA) with antigen or medium alone and rIL-2 as negative and positive controls respectively, in the presence of autologous irradiated (3000 rads) PBMC (5.0×10^4/well). Cultures were incubated for 3 days. In the last 16 hours of culture, wells were pulsed with ^3H-thymidine (1 μCi/well), then harvested onto printed glass fibre filters with a 96-well automatic cell harvester. ^3H-thymidine incorporation was measured by liquid scintillation spectroscopy.
To determine the T cell epitopes of Ara h 2, oligoclonal CPE-specific TCL were generated from PBMC of 21 peanut-allergic donors and 5 non-peanut allergic donors, and stimulated with a nested set of synthetic peptides spanning the entire Ara h 2 sequence (FIG. 1). A peptide concentration of 10 μg/ml was determined to be the optimal stimulating concentration within proliferation assays. Optimisation included assays at both 10 μg/ml and 30 μg/ml. […] In this setting, and because of the limited availability of donor cells and the cost of commercially prepared peptides, the lower concentration was used.
Several approaches to the production of TCL were used, including stimulation of cells with two and three pulses of CPE separated by 7 days each, two pulses of CPE with a third pulse of rAra h 2, again separated by 7 days each, and three stimulations with rAra h 2. Responses by TCL receiving two CPE stimulations were in general lower than those receiving three stimulations, such that it was felt the sensitivity of the assay may be compromised. […] This lead to the use of TCL stimulated with 3 pulses of CPE, each separated by 7 days for all subjects tested.

[2] = system: peanut specific TCL generated using CPE and rAra h 2; assay: rAra h 2 pulsed peanut specific TCL proliferation assay (3H-thymidine); assay type: cell-based, human
Experimental: FIG. 5 is a graphical representation of peanut allergic donor peanut specific Ara h 2 pulsed TCL proliferative responses Ara h 2 peptides, Ara h 2 and crude peanut extract. Peanut specific TCL (5×10^4 cells/ml) from individuals with peanut allergy were generated using CPE and rAra h 2, then stimulated with Ara h 2 peptides at a concentration of […] in the presence of autologous irradiated PBMC as APC (5×10^4 cells/ml) in 3 day cultures.
as §1
as §2, with “Cultures were incubated for 3 days.” left out, “spectroscopy. […]” for “spectroscopy.”

[3] = system: peanut specific TCL generated using CPE; assay: Cytokine ELISA (IL-5, IFN-γ) of CPE driven TCL supernatants; assay type: cell-based, human; settings: for IL-5 production: 48 hours
Experimental: FIG. 7 is a graphical representation of peanut allergic donor peanut specific Ara h 2 pulsed TCL cytokine responses to Ara h 2 peptides, Ara h 2 and crude peanut extract. Peanut specific TCLs (5×10^4/ml) from individuals with peanut allergy were generated using CPE, then stimulated with Ara h 2 peptides at a concentration of 10 ug/ml in the presence of autologous irradiated PBMC as APC (5×10^4/ml) in 3 day cultures. Cytokine supernatants were collected after 48 hours culture and assayed by specific ELISA. […] Peptides associated with a significant proliferative response are shaded grey.
Supernatants (70-75 μl/well of triplicate cultures) were harvested and pooled from T cell proliferation assay cultures at 48 hours (IL-5, IFN-γ) and frozen at −80° C. Harvested supernatants were replaced with warm (37° C.) complete medium and cells subsequently pulsed and harvested as described previously.
IL-5 and IFN-γ levels in culture supernatants were measured by sandwich ELISA. White Costar (Corning, USA) ELISA plates were coated with capture mAb (IL-5 and IFN-γ, 2 μg/ml; 30 μl/well) diluted in binding buffer overnight at 4° C. Plates were then washed three times in PBS/0.05% Tween (wash buffer) and wells blocked with 100 μl/well of 1% BSA/PBS (blocking buffer) for 1 hour at room temperature. Following three washes in wash buffer, 30 μl/well of serial dilutions of recombinant human IL-5 or IFN-γ (5000-0.15 pg/ml) in blocking buffer-0.05% Tween or culture supernatants were added and incubated overnight at 4° C. Following four washes in wash buffer, plates were incubated with biotinylated detection mAb (IL-5, 1 μg/ml; IFN-γ, 0.5 μg/ml; 50 μl/well) diluted in blocking buffer for 1 hour at room temperature. Plates were then washed 6 times in wash buffer and incubated with a 1 in 2000 dilution of streptavidin-peroxidase (50 μl/well) in blocking buffer for 45 minutes at room temperature. Following 8 washes in wash buffer, 100 μl/well of freshly prepared chemiluminescent substrate (Perkin-Elmer, USA) was used and plates read in a Lumicount microplate glow luminometer (Packard Instrument Company, USA), 0.5 seconds/well, automatic sensitivity setting. Standard curve construction and determination of unknown cytokine levels was performed using Packard Instruments software. IL-5 and IFN-γ ELISA sensitivities were 2 pg/ml and 4 pg/ml, respectively.
To identify the phenotype of T cells associated with a peptide proliferative response, supernatants were collected from TCL cultures 48 hours after stimulation with peptides and assayed for the presence of IL-5 and IFN-γ. For each donor, peptides associated with a proliferative response and two peptides not associated with a proliferative response were tested. […] In general, cytokine responses were at the lower limits of detection. […]

[4] = system: serum IgE; assay: Western blot of CPE for serum IgE reactivity to Ara h 2; assay type: binding, human; settings: western blotting of CPE
Description: Following resolution of CPE on a 14% polyacrylamide gel, proteins were transferred to nitrocellulose and probed with sera from the study population, and non-peanut allergic controls. IgE was detected using HRP conjugated mouse anti-human IgE and enhanced chemiluminescence.
SDS-PAGE gels were assembled into stacks in transfer buffer as follows: blotting paper, nitrocellulose membrane, gel and blotting paper. Sample proteins and pre-stained molecular weight markers were electrophoretically transferred from SDS-PAGE gels to nitrocellulose at 30 volts for 3 hours in an Xcell II blot module (Novex, USA). Following transfer, the nitrocellulose membrane was stained with Ponceau S to ensure adequate protein transfer, then cut into strips and blocked by incubation with 10% milk powder-PBS for 1 hour at room temperature. The blocked nitrocellulose membrane was then washed in PBS and incubated with sample sera diluted 1 in 5 with 1% milk powder-PBS-Tween for all proteins except for Ara h 1, whereupon a 1 in 10 serum dilution was used. Incubation took place overnight, following which the blot was washed 3 times in PBS-Tween, 5 minutes/wash. […] The nitrocellulose was then photographed and analysed using Labworks image acquisition software (UVP Laboratory Products, UK). […]

[5] = system: specific IgE; settings: cited from earlier work

Molecule: PYDRRGAGSSQHQERCCNEL (Peanut Ara h 2) [Ara h 2 (73-92), Ara h 2 20-mer peptide, residues 73-92]
- responders with a proliferative response to the peptide [1]: 3 of the 8
- pattern of reactivity of subject 6 ([2]; subject 6, rAra h 2 pulsed TCL): did not include

Molecule: RCMCEALQQIMENQSDRLQG (Peanut Ara h 2) [Ara h 2 (100-119), Ara h 2 20-mer peptide, residues 100-119]
- proliferative response [1]: inducing proliferative responses

Molecule: RQQWELQGDRRCQSQLERAN (Peanut Ara h 2) [Ara h 2 (19-38), Ara h 2 20-mer peptide, residues 19-38]
- responders with a proliferative response to the peptide [1]: 3 of the 8
- subjects demonstrating their greatest response to this peptide ([1]; response magnitude ranked for each subject): 3
- subjects responding to the peptide who also had a proliferative response to Ara h 2 [1]: 60%
- reactivity of subject 10 ([2]; subject 10, both types of TCL preparation): reacted
- magnitude of response relative to other peptides ([2]; subject 10, rAra h 2 pulsed TCL): less than that generated by stimulation with Ara h 2 (37-56) and Ara h 2 (46-65)
- IL-5/IFN-γ ratio ([3]; subject 10, CPE driven TCL): ~7
- IL-5 production ([3]; subject 10, CPE driven TCL): 540 pg/mL
- IL-5/IFN-γ ratio ([3]; subject 21, CPE driven TCL): approximately 20
- IL-5 production ([3]; subject 21, CPE driven TCL): 2054 pg/mL

Molecule: RRCQSQLERANLRPCEQHLM (Peanut Ara h 2) [Ara h 2 (28-47), Ara h 2 20-mer peptide, residues 28-47]
- proliferative response [1]: inducing proliferative responses
- subjects responding to the peptide who also had a proliferative response to Ara h 2 [1]: 60%

B1: Ara h 2: major peanut allergen, a glycoprotein of the conglutin seed storage family (protein)
chain: LTILVALALFLLAAHASARQQWELQGDRRCQSQLERANLRPCEQHLMQKIQRDEDSYERDPYSPSQDPYSPSPYDRRGAGSSQHQERCCNELNEFENNQRCMCEALQQIMENQSDRLQGRQQEQQFKRELRNLPQQCGLRAPQRCDLDVESGGRDRY
modifications: Peanut Ara h 2
notes: major peanut allergen, a glycoprotein of the conglutin seed storage family
- peanut allergic subjects possessing IgE reactive to Ara h 2 doublet ([4]; 22 peanut allergic subjects): 20 out of the 22
- IgE binding to Ara h 2 in non-peanut allergic controls ([4]; non-peanut allergic controls): weak and potentially non-specific
- sera reactive with Ara h 2 ([5]; Burks et al, 1992): 6 out of 6
- subjects with specific IgE to purified natural Ara h 2 ([5]; de Jong et al. 1998): approximately 78%
- subjects possessing specific IgE to Ara h 2 ([5]; western blotting of crude peanut extract, Clarke et al. 1998): 71%
- subjects possessing IgE towards the recombinant form ([5]; western blotting, Kleber-Janke et al. 1999): 85%
